In BigSolDB 2.1:

COc1ccc2c(c1)c(CC(=O)O)c(C)n2C(=O)c1ccc(Cl)cc1
Conditions	solubility (mole fraction)
in PEG-400, 293.15 K	0.0751
in PEG-400, 298.15 K	0.0831
in PEG-400, 303.15 K	0.0923
in PEG-400, 308.15 K	0.102
in PEG-400, 313.15 K	0.114
in PEG-400, 318.15 K	0.127

in water
Conditions	solubility (mole fraction)
293.15 K	4.73e-08
298.15 K	5e-08
303.15 K	5.31e-08
308.15 K	5.58e-08
313.15 K	5.85e-08
318.15 K	6.16e-08
